{
  "source": "patent US12172996B2",
  "about": "“Methyl {4,6-diamino-2-[5-fluoro-1-(2-fluorobenzyl)-1H-pyrazolo[3,4-b]pyridin-3-yl]pyrimidin-5-yl}carbamate active compound product having improved properties, production and formulation thereof” (Adverio Pharma GmbH, priority 2018, dated 2024)",
  "key": {"[1]": {"assay": "Determination of particle size distribution (Sympatec Helos, wet dispersion unit)", "format": "physicochemical", "conditions": "5 min ultrasound; for X10%: diameter below which 10% of the particles lie; for X50%: diameter below which 50% of the particles lie; for X90%: diameter below which 90% of the particles lie", "method": "Determination of particle size distribution. Determination of particle size distribution is performed using a Sympatec Helos instrument fitted with a wet dispersion unit. To produce the dispersion medium 10-25 mg of the active compound product of the compound of formula (I) (micronized or non-micronized) are predispersed with 10 ml of water/1 drop of Tween 20 in a small vessel. The dispersion is stirred but not shaken to avoid foam formation. The dispersed material is subsequently added to the deionized water (approx. 0.51) in the wet dispersion unit, treated with ultrasound for 5 minutes and measured (10 seconds). The sound exposure time is 5 minutes, a 50 mm aperture is employed (R2, or if measurement range exceeded, R3), the optical density of the suspension is 10-25%, the stirring/pumping speed is set to 50% (40-60%) and evaluation is carried out after 5 minutes of ultrasound.\nThe three columns X10%, X50% and X90% indicate the diameter below which 10%, 50% and 90% respectively of the particles of the analysed active compound product lie."}, "[2]": {"assay": "ATR IR of the modification after micronization", "format": "physicochemical", "description": "16.1 kg of methyl {4,6-diamino-2-[5-fluoro-1-(2-fluorobenzyl)-1H-pyrazolo[3,4-b]pyridin-3-yl]pyrimidin-5-yl}carbamate of formula (I) in the crystalline form of modification I, produced according to example 13, method E of WO 2013/076168, were micronized to afford 15.2 kg. The yield was 94.4%. […] The ATR IR diagram corresponds to the IR spectrum of the compound of formula (I) in modification I according to FIG. 1 of WO 2013/076168.\n39.0 kg of methyl {4,6-diamino-2-[5-fluoro-1-(2-fluorobenzyl)-1H-pyrazolo[3,4-b]pyridin-3-yl]pyrimidin-5-yl}carbamate of formula (I) in the crystalline form of modification I, produced by the process according to the invention of example 4, were micronized to afford 36.9 kg. The yield was 94.6%.\nThe ATR IR diagram corresponds to the IR spectrum of the compound of formula (I) in modification I according to FIG. 1 of WO 2013/076168."}},
  "data": [
    {"smiles": "COC(=O)Nc1c(N)nc(-c2nn(Cc3ccccc3F)c3ncc(F)cc23)nc1N", "note": "[Batch 2-2]", "values": [
      {"measurement": "X10%", "setting": "[1]; listed as 2-2", "result": 0.9, "unit": "μm"},
      {"measurement": "X50%", "setting": "[1]; listed as 2-2", "result": 4.2, "unit": "μm"},
      {"measurement": "X90%", "setting": "[1]; listed as 2-2", "result": 31.9, "unit": "μm"}
    ]},
    {"smiles": "COC(=O)Nc1c(N)nc(-c2nn(Cc3ccccc3F)c3ncc(F)cc23)nc1N", "note": "[Batch 2-8]", "values": [
      {"measurement": "X10%", "setting": "[1]; listed as 2-8", "result": 0.6, "unit": "μm"},
      {"measurement": "X50%", "setting": "[1]; listed as 2-8", "result": 2.6, "unit": "μm"},
      {"measurement": "X90%", "setting": "[1]; listed as 2-8", "result": 13.6, "unit": "μm"}
    ]},
    {"smiles": "COC(=O)Nc1c(N)nc(-c2nn(Cc3ccccc3F)c3ncc(F)cc23)nc1N", "note": "[Batch 2-6]", "values": [
      {"measurement": "X10%", "setting": "[1]; listed as 2-6", "result": 1.0, "unit": "μm"},
      {"measurement": "X50%", "setting": "[1]; listed as 2-6", "result": 9.0, "unit": "μm"},
      {"measurement": "X90%", "setting": "[1]; listed as 2-6", "result": 34.4, "unit": "μm"}
    ]},
    {"smiles": "COC(=O)Nc1c(N)nc(-c2nn(Cc3ccccc3F)c3ncc(F)cc23)nc1N", "note": "[Batch 2-1]", "values": [
      {"measurement": "X10%", "setting": "[1]; listed as 2-1", "result": 1.0, "unit": "μm"},
      {"measurement": "X50%", "setting": "[1]; listed as 2-1", "result": 11.1, "unit": "μm"},
      {"measurement": "X90%", "setting": "[1]; listed as 2-1", "result": 43.0, "unit": "μm"}
    ]},
    {"smiles": "COC(=O)Nc1c(N)nc(-c2nn(Cc3ccccc3F)c3ncc(F)cc23)nc1N", "note": "[Batch 2-7]", "values": [
      {"measurement": "X10%", "setting": "[1]; listed as 2-7", "result": 0.6, "unit": "μm"},
      {"measurement": "X50%", "setting": "[1]; listed as 2-7", "result": 4.1, "unit": "μm"},
      {"measurement": "X90%", "setting": "[1]; listed as 2-7", "result": 23.6, "unit": "μm"}
    ]},
    {"smiles": "COC(=O)Nc1c(N)nc(-c2nn(Cc3ccccc3F)c3ncc(F)cc23)nc1N", "note": "[compound of formula (I), Methyl {4,6-diamino-2-[5-fluoro-1-(2-fluorobenzyl)-1H-pyrazolo[3,4-b]pyridin-3-yl]pyrimidin-5-yl}carbamate]", "values": [
      {"measurement": "Modification after micronization", "setting": "[2]; produced according to example 13, method E of WO 2013/076168, 16.1 kg micronized", "result": "remained in modification I even after micronization"},
      {"measurement": "Modification after micronization", "setting": "[2]; produced by the process according to the invention of example 4, 39.0 kg micronized", "result": "remained in modification I even after micronization"}
    ]},
    {"smiles": "COC(=O)Nc1c(N)nc(-c2nn(Cc3ccccc3F)c3ncc(F)cc23)nc1N", "note": "[Batch 2-5]", "values": [
      {"measurement": "X10%", "setting": "[1]; listed as 2-5", "result": 1.4, "unit": "μm"},
      {"measurement": "X50%", "setting": "[1]; listed as 2-5", "result": 18.7, "unit": "μm"},
      {"measurement": "X90%", "setting": "[1]; listed as 2-5", "result": 50.6, "unit": "μm"}
    ]},
    {"smiles": "COC(=O)Nc1c(N)nc(-c2nn(Cc3ccccc3F)c3ncc(F)cc23)nc1N", "note": "[Batch 2-3]", "values": [
      {"measurement": "X10%", "setting": "[1]; listed as 2-3", "result": 1.0, "unit": "μm"},
      {"measurement": "X50%", "setting": "[1]; listed as 2-3", "result": 4.3, "unit": "μm"},
      {"measurement": "X90%", "setting": "[1]; listed as 2-3", "result": 27.4, "unit": "μm"}
    ]},
    {"smiles": "COC(=O)Nc1c(N)nc(-c2nn(Cc3ccccc3F)c3ncc(F)cc23)nc1N", "note": "[Batch 2-4]", "values": [
      {"measurement": "X10%", "setting": "[1]; listed as 2-4", "result": 0.5, "unit": "μm"},
      {"measurement": "X50%", "setting": "[1]; listed as 2-4", "result": 1.8, "unit": "μm"},
      {"measurement": "X90%", "setting": "[1]; listed as 2-4", "result": 9.5, "unit": "μm"}
    ]}
  ]
}
